Key:
[1] = Flow function coefficient (FFC) of powder blends mixed in a turbula mixer; assay type: physicochemical; details: powder blend
Method: Flow function coefficient (FFC) is a measure of powder flow. Values less than about 4 are considered poor and sub-optimal for powder processing. Values between 4-10 are considered acceptable flow values for powder processing. Flow behavior was analyzed for pure pirfenidone (without excipients) and a binary powder mixture of pirfenidone and microcrystalline cellulose mixed with either about 1% by weight silica or about 2% by weight silica, as shown in Table 3 below. The components were mixed in a turbula mixer and the different flow properties of the blends were measured.

[2] = after oral administration; cited from earlier work
[3] = test system: human mesenchymal-like cells (lung fibroblasts, skin fibroblasts, prostate stromal cells, renal mesangial cells); details: graded concentrations in cell culture media; cited from earlier work

For `Cc1ccc(=O)n(-c2ccccc2)c1` [Pirfenidone, 5-methyl-1-phenyl-2-(1H)-pyridone], the “Flow Function Coefficient (Avg.)” value [1] is listed as 2.3, the “Flow Function Coefficient (Avg.), flow rating in words” value [1] is listed as “(poor flow)” and the Observed side effects [2] is listed as “relatively mild (drowsiness, gastric nausea or photosensitivity rash)”. For the same compound, the Serious adverse reactions [2] was “No serious adverse reactions have been reported” and the “Effective levels relative to levels exerting pharmacologically toxic effects on the cells” value [3] was “ten to twenty times lower”.
